Laboratory results reported in patent publication US4965194A, “Pyruvate oxidase and an analytical method using the same” (Toyo Boseki Kabushiki Kaisha, priority 1986, dated 1990).

Test system: pyruvate oxidase (EC 1.2.3.3) of Lactobacillus sp. TE6103 (FERM BP-1419)
Test: Km determination of the thermostable pyruvate oxidase (physicochemical characteristics of the enzyme)
Format: biochemical
Details: purified enzyme from Lactobacillus sp. TE6103; activity assay at 37° C., pH 7.0, with thiamine pyrophosphate and FAD; read-out: Km for pyruvic acid
Description: The activity of the resulting pyruvate oxidase can be measured as follows:
First, from the mixture of the ingredients listed above, 2.5 ml is sampled and placed in a test tube, and 0.5 ml of a 0.3 M solution of potassium pyruvate is added thereto. The mixture is then heated at 37° C. for 5 minutes. To this, 0.05 ml of the enzyme solution is added, and the mixture gently stirred; then, the changes (ΔOD) in the optical density at 500 nm over 1 minute of the mixture at 37° C. are monitored in a spectrophotometer against water. Next, in place of the enzyme solution, 0.05 ml of a 50 mM potassium phosphate buffer (pH 7.0) is used, and the same steps as above are followed to measure the changes (ΔOD) in optical density over 1 minute; this is the blank test. Under these conditions, the enzyme activity of pyruvate oxidase that produces 1 μmol of hydrogen peroxide is taken to be one unit (U).
The physicochemical characteristics of the enzyme activity of this invention will be shown below.

## CC(=O)C(=O)O [pyruvic acid]
  Km: ~400 µM
